From patent US20120231069A1, “Targeted Nanocarrier Systems for Delivery of Actives Across Biological Membranes” (Access Pharmaceuticals, Inc., priority 2011, published 2012)

Test system: Diabetic Rats
Experiment: Blood glucose reduction in streptozotocin-diabetic rats after oral gavage
Assay type: in vivo
Conditions: diabetic female Wistar rats, oral gavage 0.5 mL of 20 IU/mL insulin
Experimental: Female Wistar rats (200 g) were housed at room temperature with 12 h light/dark cycle. All animals had ad libitum access to a standard chow diet and water except wherever indicated. The rats were allowed to acclimatize for a period of 7 days in the new environment before initiation of the experiment. After randomization into groups of 4, each rat was marked and followed individually throughout the study. All rats were fasted for 1 hour. Streptozotocin obtained from Sigma (98% HPLC) was administered by IV injection at a dose of 55-65 mg/kg in 0.1M citrate buffer (pH 4.5) followed by an additional 1 hour fast. Blood was collected daily from the tail and blood glucose levels were measured using an Accu-Chek® (Compact Plus-Roche) blood glucose monitor. When all animals in the group had achieved a blood glucose level of >250 mg/dl (5 days) the insulin metabolism phase was begun. All animals were fasted for 1 hour and a blood glucose measurement taken (T=0). Groups of rats were dosed by oral gavage with 0.5 mL of an aqueous preparation of insulin nanoparticles (containing 20 IU/mL of insulin) of example 9, or 0.5 mL of an aqueous solution of bovine insulin (20 IU/mL). The animals were then fasted for another hour and blood glucose levels were measured at 1, 4, 8 and 24 hours after dosing.

plain insulin formulation: aqueous solution of bovine insulin (20 IU/mL), oral comparator
increase in blood glucose level (compared to T=0) (8 hours after dosing): 1%
increase in blood glucose level (compared to T=0) (24 hours after dosing): 21%
